Conditions: Liquid; for speed of sound: Frequency=3 MHz, Single path-length method; for mass density: Vibrating tube method

C[S+](C)[O-] [dimethyl sulfoxide]
Conditions | mass density [kg/m3] | speed of sound [m/s]
293.15 K, 100 kPa | 1100.4 | 1502
293.15 K, 500 kPa | 1100 | –
293.15 K, 1000 kPa | 1101 | –
293.15 K, 2500 kPa | 1102 | –
293.15 K, 5000 kPa | 1103 | –
293.15 K, 7500 kPa | 1104 | –
293.15 K, 10000 kPa | 1106 | –
293.15 K, 12500 kPa | 1107 | –
293.15 K, 15000 kPa | 1108 | –
293.15 K, 17500 kPa | 1110 | –
293.15 K, 20000 kPa | 1111 | –
293.15 K, 22500 kPa | 1112 | –
293.15 K, 25000 kPa | 1114 | –
293.15 K, 27500 kPa | 1115 | –
293.15 K, 30000 kPa | 1116 | –
293.15 K, 32500 kPa | 1117 | –
293.15 K, 35000 kPa | 1119 | –
293.15 K, 37500 kPa | 1120 | –
298.15 K, 100 kPa | 1095.4 | 1485
298.15 K, 500 kPa | 1095 | –
298.15 K, 1000 kPa | 1096 | –
298.15 K, 2500 kPa | 1096 | –
298.15 K, 5000 kPa | 1098 | –
298.15 K, 7500 kPa | 1099 | –
298.15 K, 10000 kPa | 1101 | –
298.15 K, 12500 kPa | 1102 | –
298.15 K, 15000 kPa | 1103 | –
298.15 K, 17500 kPa | 1105 | –
298.15 K, 20000 kPa | 1106 | –
298.15 K, 22500 kPa | 1107 | –
298.15 K, 25000 kPa | 1109 | –
298.15 K, 27500 kPa | 1110 | –
298.15 K, 30000 kPa | 1111 | –
298.15 K, 32500 kPa | 1113 | –
298.15 K, 35000 kPa | 1114 | –
298.15 K, 37500 kPa | 1115 | –
313.15 K, 100 kPa | 1080.3 | 1435
313.15 K, 500 kPa | 1080 | –
313.15 K, 1000 kPa | 1080 | –
313.15 K, 2500 kPa | 1081 | –
313.15 K, 5000 kPa | 1083 | –
313.15 K, 7500 kPa | 1084 | –
313.15 K, 10000 kPa | 1086 | –
313.15 K, 12500 kPa | 1087 | –
313.15 K, 15000 kPa | 1089 | –
313.15 K, 17500 kPa | 1090 | –
313.15 K, 20000 kPa | 1092 | –
313.15 K, 22500 kPa | 1093 | –
313.15 K, 25000 kPa | 1095 | –
313.15 K, 27500 kPa | 1096 | –
313.15 K, 30000 kPa | 1097 | –
313.15 K, 32500 kPa | 1099 | –
313.15 K, 35000 kPa | 1100 | –
313.15 K, 37500 kPa | 1101 | –
333.15 K, 100 kPa | 1060.2 | 1368
333.15 K, 500 kPa | 1060 | –
333.15 K, 1000 kPa | 1060 | –
333.15 K, 2500 kPa | 1061 | –
333.15 K, 5000 kPa | 1063 | –
333.15 K, 7500 kPa | 1065 | –
333.15 K, 10000 kPa | 1066 | –
333.15 K, 12500 kPa | 1068 | –
333.15 K, 15000 kPa | 1070 | –
333.15 K, 17500 kPa | 1071 | –
333.15 K, 20000 kPa | 1073 | –
333.15 K, 22500 kPa | 1074 | –
333.15 K, 25000 kPa | 1076 | –
333.15 K, 27500 kPa | 1077 | –
333.15 K, 30000 kPa | 1079 | –
333.15 K, 32500 kPa | 1080 | –
333.15 K, 35000 kPa | 1082 | –
333.15 K, 37500 kPa | 1083 | –
353.15 K, 500 kPa | 1040 | –
353.15 K, 1000 kPa | 1040 | –
353.15 K, 2500 kPa | 1042 | –
353.15 K, 5000 kPa | 1043 | –
353.15 K, 7500 kPa | 1045 | –
353.15 K, 10000 kPa | 1047 | –
353.15 K, 12500 kPa | 1049 | –
353.15 K, 15000 kPa | 1050 | –
353.15 K, 17500 kPa | 1052 | –
353.15 K, 20000 kPa | 1054 | –
353.15 K, 22500 kPa | 1055 | –
353.15 K, 25000 kPa | 1057 | –
353.15 K, 27500 kPa | 1059 | –
353.15 K, 30000 kPa | 1060 | –
353.15 K, 32500 kPa | 1062 | –
353.15 K, 35000 kPa | 1063 | –
353.15 K, 37500 kPa | 1065 | –
373.15 K, 500 kPa | 1020 | –
373.15 K, 1000 kPa | 1020 | –
373.15 K, 2500 kPa | 1022 | –
373.15 K, 5000 kPa | 1024 | –
373.15 K, 7500 kPa | 1026 | –
373.15 K, 10000 kPa | 1027 | –
373.15 K, 12500 kPa | 1029 | –
373.15 K, 15000 kPa | 1031 | –
373.15 K, 17500 kPa | 1033 | –
373.15 K, 20000 kPa | 1035 | –
373.15 K, 22500 kPa | 1037 | –
373.15 K, 25000 kPa | 1038 | –
373.15 K, 27500 kPa | 1040 | –
373.15 K, 30000 kPa | 1042 | –
373.15 K, 32500 kPa | 1044 | –
373.15 K, 35000 kPa | 1045 | –
373.15 K, 37500 kPa | 1047 | –
393.15 K, 500 kPa | 999 | –
393.15 K, 1000 kPa | 1000 | –
393.15 K, 2500 kPa | 1001 | –
393.15 K, 5000 kPa | 1004 | –
393.15 K, 7500 kPa | 1006 | –
393.15 K, 10000 kPa | 1008 | –
393.15 K, 12500 kPa | 1010 | –
393.15 K, 15000 kPa | 1012 | –
393.15 K, 17500 kPa | 1014 | –
393.15 K, 20000 kPa | 1016 | –
393.15 K, 22500 kPa | 1018 | –
393.15 K, 25000 kPa | 1020 | –
393.15 K, 27500 kPa | 1022 | –
393.15 K, 30000 kPa | 1024 | –
393.15 K, 32500 kPa | 1025 | –
393.15 K, 35000 kPa | 1027 | –
393.15 K, 37500 kPa | 1029 | –
413.15 K, 500 kPa | 979 | –
413.15 K, 1000 kPa | 979 | –
413.15 K, 2500 kPa | 981 | –
413.15 K, 5000 kPa | 983 | –
413.15 K, 7500 kPa | 986 | –
413.15 K, 10000 kPa | 988 | –
413.15 K, 12500 kPa | 990 | –
413.15 K, 15000 kPa | 993 | –
413.15 K, 17500 kPa | 995 | –
413.15 K, 20000 kPa | 997 | –
413.15 K, 22500 kPa | 999 | –
413.15 K, 25000 kPa | 1001 | –
413.15 K, 27500 kPa | 1003 | –
413.15 K, 30000 kPa | 1005 | –
413.15 K, 32500 kPa | 1007 | –
413.15 K, 35000 kPa | 1009 | –
413.15 K, 37500 kPa | 1011 | –
433.15 K, 500 kPa | 958 | –
433.15 K, 1000 kPa | 958 | –
433.15 K, 2500 kPa | 960 | –
433.15 K, 5000 kPa | 963 | –
433.15 K, 7500 kPa | 966 | –
433.15 K, 10000 kPa | 968 | –
433.15 K, 12500 kPa | 971 | –
433.15 K, 15000 kPa | 973 | –
433.15 K, 17500 kPa | 976 | –
433.15 K, 20000 kPa | 978 | –
433.15 K, 22500 kPa | 980 | –
433.15 K, 25000 kPa | 983 | –
433.15 K, 27500 kPa | 985 | –
433.15 K, 30000 kPa | 987 | –
433.15 K, 32500 kPa | 989 | –
433.15 K, 35000 kPa | 991 | –
433.15 K, 37500 kPa | 993 | –
453.15 K, 500 kPa | 936 | –
453.15 K, 1000 kPa | 937 | –
453.15 K, 2500 kPa | 939 | –
453.15 K, 5000 kPa | 942 | –
453.15 K, 7500 kPa | 945 | –
453.15 K, 10000 kPa | 948 | –
453.15 K, 12500 kPa | 951 | –
453.15 K, 15000 kPa | 953 | –
453.15 K, 17500 kPa | 956 | –
453.15 K, 20000 kPa | 959 | –
453.15 K, 22500 kPa | 961 | –
453.15 K, 25000 kPa | 964 | –
453.15 K, 27500 kPa | 966 | –
453.15 K, 30000 kPa | 969 | –
453.15 K, 32500 kPa | 971 | –
453.15 K, 35000 kPa | 973 | –
453.15 K, 37500 kPa | 976 | –
473.15 K, 500 kPa | 914 | –
473.15 K, 1000 kPa | 915 | –
473.15 K, 2500 kPa | 917 | –
473.15 K, 5000 kPa | 921 | –
473.15 K, 7500 kPa | 924 | –
473.15 K, 10000 kPa | 927 | –
473.15 K, 12500 kPa | 930 | –
473.15 K, 15000 kPa | 933 | –
473.15 K, 17500 kPa | 936 | –
473.15 K, 20000 kPa | 939 | –
473.15 K, 22500 kPa | 942 | –
473.15 K, 25000 kPa | 945 | –
473.15 K, 27500 kPa | 948 | –
473.15 K, 30000 kPa | 950 | –
473.15 K, 32500 kPa | 953 | –
473.15 K, 35000 kPa | 955 | –
473.15 K, 37500 kPa | 958 | –
